What was measured:
[1] = radiochemical stability of the radiotracer after preparation; format: physicochemical
B16BL6 tumour = assay: PET imaging in B16BL6 tumour bearing mice; format: in vivo, C57BL/6J mice; settings: 1 h p.i., day-15
Method: All our studies were performed in accordance with French and European Economic Community (86-609, EEC) guidelines for care of laboratory animals. Protocols were performed under the authorization of the French Direction des Services Veterinaires (authorization no. CE 86-12). Male C57BL/6J mice were originating from Charles River laboratories and maintained at 21° C. with a 12 h/12 h light/dark cycle, fed with a breeding diet (diet A04 from Safe, Villemoisson, France) and received water ad libitum. For transplantation B16BL6 cell suspension were grown in a monolayer culture to confluence, after which cells were trypsinized, washed with phosphate buffer saline (PBS) and they were resuspended in PBS. Mice were anesthetized by isoflurane (4% for induction and 2±0.5% for maintaining in oxygen flux) inhalation. The primary tumour model was induced by subcutaneous injection of 3×10^5 melanoma B16B16 cells in 0.1 mL on the right shoulder of mice.
Whole-body PET scans were acquired 1 h after bolus injection of […] of the appropriate [^18F]-compound in a volume of 0.15 ml via the tail vein. Mice were anesthetized by intraperitoneal (i.p.) administration (200 μL/mouse) of a ketamine-xylazine mixture in saline: ketamine (100 mg/kg, Imalgene™, Rhône Mérieux, Lyon, France) and xylazine (10 mg/kg, Rompun™, Bayer, France) before radiotracer injection and imaged by using a small-animal PET device, eXplore Vista microPET instrument (GE Healthcare). PET images were acquired by using static mode during 20 min. The acquired data were reconstructed using the 2-Dimensional ordered-subsets expectation maximization (OSEM) algorithm and corrected from decay, scatter and randoms. No corrections were applied for partial volume or attenuation.
Regional tracer uptake was quantified by standard region-of-interest (ROI) analysis with eXplore Vista software package. A manual 2D-ROI was drawn around the tumour in each slice where tumour was visible, and on several subsequent coronal planes containing muscle tissue at the forelimb. Results are expressed by percentage of injected dose per gram of tissue (% ID/g).
PET imaging was performed 1 h post injection of tracers in B16BL6 tumour bearing mice at day-15 after tumours cell inoculation.

SKMEL-3 tumours = assay: PET imaging in SKMEL-3 tumour bearing mice; format: in vivo, Swiss nudes mice; settings: 1 h p.i.
Method: (§1) Protocols were performed under the authorization of the French Direction des Services Veterinaires (authorization no. CE 86-12). Female Swiss nudes mice (6 weeks old) were originating from Charles River laboratories and maintained at 21° C. with a 12 h/12 h light/dark cycle, fed with a breeding diet (diet A04 from Safe, Villemoisson, France) and received water ad libitum. For transplantation cell suspension were grown in a monolayer culture to confluence, after which cells were trypsinized, washed with phosphate buffer saline (PBS) and they were resuspended in PBS. Mice were anesthetized by isoflurane (4% for induction and 2±0.5% for maintaining in oxygen flux) inhalation. The primary tumour model was induced by subcutaneous injection of 3×10^6 melanoma SKMEL-3 (pigmented cell line) or A375 (non-pigmented cell ligne) cells in 0.1 mL on the right shoulder of mice.
(§2) Whole-body PET scans were acquired 1 h after bolus injection of 10 MBq of [^18F](1) in a volume of 0.15 ml via the tail vein. […]
(§3) Regional tracer uptake was quantified by standard region-of-interest (ROI) analysis with eXplore Vista software package. […]

A375 tumours = assay: PET imaging in A375 tumour bearing mice; format: in vivo, Swiss nudes mice; settings: 1 h p.i.
Method: as §1, §2, §3

In the case of `CCN(CCNC(=O)c1cnc2cc(I)ccc2n1)CCOCCOCCOCC[18F]` [[^18F](1)], the “radiochemically stable at room temperature after preparation” value [1] is reported as “at least 24 h”, the eyes uptake (B16BL6 tumour) is reported as 10.50±2.95 % ID/g and the intestine uptake (B16BL6 tumour) is reported as 4.07±1.39 % ID/g. The muscles activity (B16BL6 tumour) was 1.37±0.37 % ID/g, the pigmented spleen uptake (B16BL6 tumour) was 7.38±0.73 % ID/g and the tumour uptake (B16BL6 tumour) was 14.33±2.11 % ID/g. For the same compound, the tumour/muscle ratio (B16BL6 tumour) was 11.04±2.87, the muscles activity (SKMEL-3 tumours; SKMEL-3 tumour bearing mice) was 1.34±0.42 % ID/g and the tumour uptake (SKMEL-3 tumours; day-27, pigmented SKMEL-3 tumours) was 4.65±1.07 % ID/g. For the same compound, the muscles activity (A375 tumours; A375 tumour bearing mice) was 1.14±0.28 % ID/g and the tumour uptake (A375 tumours; day-23, unpigmented A375 tumours) was 1.87±0.34 % ID/g.
